Test results as given in US6962920B2, “Pyrimidine derivatives and methods of making and using these derivatives” (Duquesne University of the Holy Ghost, priority 1992, dated 2005).
pIC50: −log10 of the molar value. Where two headings read alike, the source gives them in different places. One block for each molecule: values may come before it.

Assays:
[1] = target: T1, Pc DHFR (Pneumocystis carinii, UniProt P16184); assay type: biochemical; conditions: for Selectivity Ratio: RL DHFR/Pc DHFR: Table 7, IC50 RL DHFR divided by IC50 Pc DHFR; for Selectivity ratio rl/pc: IC50 rlDHFR/IC50 pcDHFR; for Selectivity Ratio RL/Pc: Table 16
T1 sequence (P16184 1-206): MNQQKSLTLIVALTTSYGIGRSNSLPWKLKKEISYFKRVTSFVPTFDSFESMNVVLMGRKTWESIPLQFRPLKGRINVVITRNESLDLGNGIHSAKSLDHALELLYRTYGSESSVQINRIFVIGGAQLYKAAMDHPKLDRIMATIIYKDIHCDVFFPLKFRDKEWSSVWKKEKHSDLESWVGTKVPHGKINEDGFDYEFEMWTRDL
Experimental: (§1) The selectivity ratio is a measure of the selectivity of a compound for Pc DHFR or Tg DHFR and is expressed as the IC50 value of the DHFR from rate liver (RL) divided by the IC50 value of either the Pc DHFR or the Tg DHFR, depending on which organism the compounds are being tested against. For example, the selectivity ratio of a compound is calculated by the following formula: [formula]

[2] = target: T2, RL DHFR (Rattus norvegicus, UniProt Q920D2); experiment: Inhibition of DHFR from rat liver; assay type: biochemical
T2 construct: Toxoplasmosis gondii (Tg) and rat liver (RL); from tissue; host or cells: rat liver
T2 sequence (Q920D2 1-187): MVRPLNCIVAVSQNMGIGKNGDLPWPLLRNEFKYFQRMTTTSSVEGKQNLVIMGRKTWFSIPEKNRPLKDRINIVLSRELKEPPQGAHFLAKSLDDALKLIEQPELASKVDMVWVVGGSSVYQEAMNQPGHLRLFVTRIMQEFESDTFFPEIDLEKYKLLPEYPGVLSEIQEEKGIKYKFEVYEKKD
Experimental: as §1

[3] = target: T1, Pc DHFR; experiment: biochemical
[4] = target: T3, Tg DHFR (Toxoplasma gondii, UniProt Q07422); experiment: biochemical; assay type: biochemical; conditions: for Selectivity Ratio: RL DHFR/Tg: IC50 RL DHFR divided by IC50 Tg DHFR; for Selectivity ratio rl/tg: IC50 rlDHFR/IC50 tgDHFR; for rl/tg: selectivity ratio
T3 sequence (Q07422 1-610): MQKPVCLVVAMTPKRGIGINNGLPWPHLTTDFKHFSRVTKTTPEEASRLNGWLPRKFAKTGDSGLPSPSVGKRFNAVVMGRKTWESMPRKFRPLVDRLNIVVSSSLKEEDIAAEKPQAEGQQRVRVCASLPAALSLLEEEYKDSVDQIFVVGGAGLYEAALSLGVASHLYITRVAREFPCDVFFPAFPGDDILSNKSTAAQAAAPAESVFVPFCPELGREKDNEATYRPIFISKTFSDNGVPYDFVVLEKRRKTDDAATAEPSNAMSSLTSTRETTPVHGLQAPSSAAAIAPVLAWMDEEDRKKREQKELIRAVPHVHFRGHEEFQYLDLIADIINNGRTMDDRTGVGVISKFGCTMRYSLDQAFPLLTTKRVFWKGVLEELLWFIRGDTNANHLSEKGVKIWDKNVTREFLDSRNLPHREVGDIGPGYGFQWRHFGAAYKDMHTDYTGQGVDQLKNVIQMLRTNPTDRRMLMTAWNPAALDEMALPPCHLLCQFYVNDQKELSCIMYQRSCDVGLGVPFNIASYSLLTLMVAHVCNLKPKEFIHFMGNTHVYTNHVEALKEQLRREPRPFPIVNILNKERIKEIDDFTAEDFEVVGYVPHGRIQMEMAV
Experimental: as §1

[5] = target: E-coli thymidylate synthase (ecTS) (Escherichia coli, UniProt P0A884); experiment: Inhibition of E. coli thymidylate synthase; assay type: biochemical; conditions: for % in parentheses after the > value, ecTS: Table 22, at the concentration given
Sequence of E-coli thymidylate synthase (ecTS) (P0A884 whole entry): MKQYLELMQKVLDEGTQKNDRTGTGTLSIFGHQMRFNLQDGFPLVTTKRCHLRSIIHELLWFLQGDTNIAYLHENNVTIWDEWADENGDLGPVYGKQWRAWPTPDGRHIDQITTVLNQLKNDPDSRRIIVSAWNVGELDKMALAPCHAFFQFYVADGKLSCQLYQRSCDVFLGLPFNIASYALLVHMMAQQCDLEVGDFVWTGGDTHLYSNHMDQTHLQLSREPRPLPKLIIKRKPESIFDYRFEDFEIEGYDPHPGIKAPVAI
Experimental: All of the compounds were tested against human cells, L. casei, E. coli, and S. faecium.

[6] = Table 7, read-out: RL DHFR IC50
[7] = Table 7, read-out: Pc DHFR IC50
[8] = Table 7, read-out: Tg DHFR IC50
[9] = Table 25, read-out: Inhibitor Concentrations (IC50) rlDHFR
[10] = Table 16, read-out: Pc DHFR IC50
[11] = Table 25, read-out: Inhibitor Concentrations (IC50) pcDHFR
[12] = Table 25, read-out: Inhibitor Concentrations (IC50) tgDHFR
[13] = Table 16, read-out: RL DHFR IC50
[14] = Table 16, read-out: Tg DHFR IC50
[15] = Table 22, read-out: rlDHFR IC50
[16] = Table 22, read-out: pcDHFR IC50
[17] = Table 22, read-out: tgDHFR IC50

- Selectivity Ratio: RL DHFR/Pc DHFR [1]: <2.4
- pIC50 [2, 6]: 4.25
- pIC50 [3, 7]: < 4.64
Compound: COc1cc(NCc2c[nH]c3nc(N)nc(N)c23)cc(OC)c1OC [Compound 1, 2,4-diamino-5-[(3′,4′,5′-trimethoxyanilino)methyl]pyrrolo[2,3-d]pyrimidine]
- Selectivity Ratio: RL DHFR/Tg ([4]; Table 7): 7.0
- pIC50 [4, 8]: 5.09

Compound: COc1ccc(NCc2c[nH]c3nc(N)nc(N)c23)cc1OC [Compound 2, 2,4-diamino-5-[(3′,4′-dimethoxyanilino)methyl]pyrrolo[2,3-d]pyrimidine]
- pIC50 [2, 6]: 3.94
- pIC50 [3, 7]: 3.92
- pIC50 [4, 8]: 5.37

Compound: COc1ccc(NCc2c[nH]c3nc(N)nc(N)c23)cc1 [Compound 3, 2,4-diamino-5-[(4′-methoxyanilino)methyl]pyrrolo[2,3-d]pyrimidine]
- Selectivity Ratio: RL DHFR/Pc DHFR [1]: 0.23
- pIC50 [2, 6]: 4.20
- pIC50 [3, 7]: 3.55
- Selectivity Ratio: RL DHFR/Tg ([4]; Table 7): 10.5
- pIC50 [4, 8]: 5.22

- pIC50 [2, 6]: 3.81
Compound: COc1ccc(OC)c(NCc2cnc3[nH]c(N)nc(N)c2-3)c1 [Compound 4, 2,4-diamino-5-[(2′,5′-dimethoxyanilino)methyl]pyrrolo[2,3-d]pyrimidine]
- pIC50 [4, 8]: 5.77

Compound: CCOc1ccc(OCC)c(NCc2c[nH]c3nc(N)nc(N)c23)c1 [Compound 5, 2,4-diamino-5-[(2′,5′-diethoxyanilino)methyl]pyrrolo[2,3-d]pyrimidine]
- pIC50 [2, 6]: 4.15
- pIC50 [3, 7]: < 4.68
- pIC50 [4, 8]: 5.28

Compound: Nc1nc(N)c2c(CNc3ccc(Cl)c(Cl)c3)c[nH]c2n1 [Compound 6, 2,4-diamino-5-[(3′,4′dichloroanilino)methyl]pyrrolo[2,3-d]pyrimidine]
- pIC50 [2, 6]: 4.84
- pIC50 [3, 7]: 4.45
- pIC50 [4, 8]: 5.85

Compound: Nc1nc(N)c2c(CNc3ccccc3)cnc-2[nH]1 [Compound 8, 2,4-diamino-5-(anilinomethyl)pyrrolo[2,3-d]pyrimidine]
- pIC50 [2, 6]: < 3.60
- Selectivity Ratio: RL DHFR/Pc DHFR ([3]; Table 7, IC50 RL DHFR divided by IC50 Pc DHFR): >1
- pIC50 [3, 7]: 3.60
- Selectivity Ratio: RL DHFR/Tg ([4]; Table 7): >65
- pIC50 [4, 8]: 5.41

- pIC50 [2, 9]: 3.60
Compound: Nc1nc(N)c2c(CSc3ccccc3)coc2n1 [Compound 159, 2-4-Diamino-5-[(phenylthio)methyl]furo[2,3-d]pyrimidine]

- pIC50 [2, 9]: 4.64
Compound: Nc1nc(N)c2c(CSc3cccc4ccccc34)coc2n1 [Compound 160, 2,4-Diamino-5-[(1-naphthylthio)methyl]furo[2,3-d]pyrimidine]

- pIC50 [2, 9]: 4.91
- pIC50 [3]: 6.18
- pIC50 [3, 10]: 6.19
- pIC50 [3, 11]: 6.19
Compound: Nc1nc(N)c2c(CSc3ccc4ccccc4c3)coc2n1 [Compound 161, 2,4-Diamino-5-[(2-naphthylthio)methyl]furo[2,3-d]pyrimidine]

Compound: Nc1nc(N)c2c(CNc3cccc4ccccc34)coc2n1 [Compound 162, 2,4-Diamino-5-[(1-naphthylamino)methyl]furo[2,3-d]pyrimidine]
- pIC50 [3, 10]: 4.87
- pIC50 [3, 11]: 4.87
- pIC50 [4, 12]: 4.43

- Selectivity ratio rl/pc [1]: 0.89
- Selectivity Ratio RL/Pc [1]: 0.89
- pIC50 [2, 13]: 4.44
- pIC50 [2, 9]: 4.44
- pIC50 [3, 10]: 4.39
- pIC50 [3, 11]: 4.39
Compound: Nc1nc(N)c2c(CNc3ccc4ccccc4c3)coc2n1 [Compound 163, 2-4-Diamino-5-[(2-naphthylamino)methyl]furo[2,3-d]pyrimidine]
- Selectivity ratio rl/tg [4]: 0.96
- Selectivity Ratio RL/Tg ([4]; Table 16): 0.96
- pIC50 [4, 14]: 4.42
- pIC50 [4, 12]: 4.42

- pIC50 [2, 13]: < 4.92
- pIC50 [2, 9]: < 4.92
- pIC50 [3, 10]: < 4.92
- pIC50 [3, 11]: < 4.92
Compound: Nc1nc(N)c2c(CNc3ccccc3Oc3ccccc3)coc2n1 [Compound 165, 2,4-Diamino-5-[(2′-phenoxyanilino)methyl]furo[2,3-d]pyrimidine]
- pIC50 [4, 14]: < 4.92
- pIC50 [4, 12]: < 4.92

Compound: Nc1nc(N)c2c(CNc3ccc(Oc4ccccc4)cc3)coc2n1 [Compound 166, 2,4-Diamino-5-[(4′-phenoxyanilino)methyl]furo[2,3-d]pyrimidine]
- pIC50 [4, 14]: 4.49
- pIC50 [4, 12]: 4.49

- pIC50 [2, 13]: 3.73
Compound: Nc1nc(N)c2c(CNc3ccccc3-c3ccccc3)coc2n1 [Compound 167, 2,4-Diamino-5-[(2′-phenylanilino)methyl]furo[2,3-d]pyrimidine]

Compound: Nc1nc(N)c2c(CNc3cc(Cl)ccc3Cl)coc2n1 [Compound 169, 2,4-Diamino-5-[(2′,5′-dichloroanilino)methyl]furo[2,3-d]pyrimidine]
- Selectivity ratio rl/pc [1]: 1.4
- Selectivity Ratio RL/Pc [1]: 1.4
- pIC50 [2, 9]: 4.14
- pIC50 [3, 10]: 4.29
- pIC50 [3, 11]: 4.29

- pIC50 [2, 13]: < 4.57
- pIC50 [2, 9]: < 4.57
- pIC50 [3, 10]: 4.35
- pIC50 [3, 11]: 4.35
Compound: CN(Cc1coc2nc(N)nc(N)c12)c1ccc(Cl)c(Cl)c1 [Compound 171, 2,4-Diamino-5-[(N-methyl-3′,4′-dichloroanilino)methyl]furo[2,3-d]pyrimidine]
- pIC50 [4, 14]: < 4.57
- pIC50 [4, 12]: < 4.57

- pIC50 [3, 10]: 3.55
- pIC50 [3, 11]: 3.55
Compound: CN(Cc1coc2nc(N)nc(N)c12)c1cc(Cl)c(Cl)c(Cl)c1 [Compound 172, 2,4-Diamino-5-[(N-methyl-3′,4′,5′-trichloroanilino)methyl]furo[2,3-d]-pyrimidine]

- pIC50 [2, 13]: < 4.50
- pIC50 [2, 9]: < 4.50
- pIC50 [3, 10]: < 4.50
- pIC50 [3, 11]: < 4.50
Compound: COc1cccc(NCc2coc3nc(N)nc(N)c23)c1 [Compound 175, 2,4-Diamino-5-[(3′-methoxyanilino)methyl]furo[2,3-d]-pyrimidine]
- pIC50 [4, 14]: < 4.50
- pIC50 [4, 12]: < 4.50

Compound: COc1ccc(OC)c(NCc2c[nH]c3nc(N)nc(O)c23)c1 [Compound 408]
- pIC50 [5]: < 3.80
- % in parentheses after the > value, ecTS [5]: 21%
- pIC50 [2, 15]: < 4.33
- pIC50 [3, 16]: < 4.33
- pIC50 [4, 17]: 5.66
- rl/tg ([4]; Table 22): >21

Compound: COc1cc(NCc2c[nH]c3nc(N)[nH]c(=O)c23)cc(OC)c1 [Compound 409]
- pIC50 [5]: < 3.80
- % in parentheses after the > value, ecTS [5]: 0%
- pIC50 [2, 15]: < 4.70
- pIC50 [3, 16]: < 4.70
- pIC50 [4, 17]: 5.59
- rl/tg ([4]; Table 22): >8

Compound: COc1ccc(NCc2c[nH]c3nc(N)[nH]c(=O)c23)c(OC)c1 [Compound 410]
- pIC50 [5]: < 3.80
- % in parentheses after the > value, ecTS [5]: 8%
- pIC50 [2, 15]: < 4.80
- pIC50 [3, 16]: < 4.80
- pIC50 [4, 17]: 5.15
- rl/tg ([4]; Table 22): >1.4

Compound: COc1cc(NCc2c[nH]c3nc(N)nc(O)c23)cc(OC)c1OC [Compound 411]
- pIC50 [5]: < 3.54
- % in parentheses after the > value, ecTS [5]: 8%
- pIC50 [2, 15]: < 4.66
- pIC50 [3, 16]: < 4.66
- pIC50 [4, 17]: 5.16
- rl/tg ([4]; Table 22): >3

- pIC50 [2, 15]: < 4.20
- pIC50 [3, 16]: 4.18
Compound: Nc1nc(O)c2c(CNc3cc(Cl)cc(Cl)c3)c[nH]c2n1 [Compound 413]
- pIC50 [4, 17]: 5.52
- rl/tg ([4]; Table 22): >21

- pIC50 [2, 15]: < 4.82
- pIC50 [3, 16]: < 4.82
Compound: Nc1nc2[nH]cc(CNc3ccc(Cl)cc3Cl)c2c(=O)[nH]1 [Compound 414]
- pIC50 [4, 17]: 5.66
- rl/tg ([4]; Table 22): >7

Compound: Nc1nc(O)c2c(CNc3cccc(Cl)c3)c[nH]c2n1 [Compound 415]
- pIC50 [5]: < 3.74
- % in parentheses after the > value, ecTS [5]: 26%
- pIC50 [2, 15]: < 4.59
- pIC50 [3, 16]: < 4.59
- pIC50 [4, 17]: 5.46
- rl/tg ([4]; Table 22): >7

Compound: COc1ccc(OC)c(Cc2cnc3nc(N)nc(N)c3c2C)c1 [PTX, piritrexim, reference compound]
- pIC50 [2, 6]: 9.00

Compound: CCOc1cc(Cc2cnc(N)nc2N)cc(OCC)c1-n1cccc1 [epiroprim, reference compound]
- Selectivity ratio rl/pc [1]: 12.8
- Selectivity ratio rl/tg [4]: 70.6
- pIC50 [4, 12]: 6.32
